Test results reported in paper PMC10064330, “Reversible Dual-Covalent Molecular Locking of the 14-3-3/ERRγ Protein–Protein Interaction as a Molecular Glue Drug Discovery Approach” (Journal of the American Chemical Society, 2023).

Experiments:
[1] = target: T1, 14-3-3γ/ERRγ complex (Homo sapiens, UniProt P61981+P62508); experiment: Time-dependent fluorescence anisotropy (TD-FA) of ternary complex formation; format: binding
T1 construct: made in house; host or cells: E. coli NiCo21 (DE3)
Description: Time-dependent fluorescence anisotropy (TD-FA) measurements provided insights in the kinetics of ternary complex (14-3-3/ERRγ/lock) formation (Figures S2 and S3). All fragments reached saturation by ∼12 h. […] Carboxamides 4–6 and 8–10 reached saturation within 5 h.
TD-FA experiments were also performed at different pH values to study ternary complex (14-3-3γ/ERRγ/compound) formation and the importance of the imine bond in the molecular lock (Figure 3b,c and Figures S14–S16). […] Similarly, the avidity of the 14-3-3/ERRγ/1 complex at equilibrium was not affected by pH (Figure 3b). In contrast, 5 and 10 elicited an inverse relationship between pH and KD^app (Figure 3c and Figure S14), connected to impaired imine bond formation at low pH.
In contrast, the formation of the ternary complexes of 14-3-3γ/ERRγ/compound with 1, 5, and 10 was time-dependent and pH-responsive (Figure 3b,c and Figures S15 and S16). […] At pH 6.5, the kinetics of disulfide bond formation was 50% slower. For instance, at pH 6.5, the maximum effect of 1 was reached after a 4.2 h incubation, compared to 1.7–0.8 h for pH 7.0–8.0 (Figure S16g). […] Effective disulfide formation thus appeared to aid in the imine bond formation of the dual-covalent locks. Combining the two reactive handles increased the effective molar concentration of the lock within the binding pocket, illustrating the need for dual reactivity and leading to enhanced 14-3-3/ERRγ avidity.
Figure S2. Time resolved fluorescence anisotropy screen. Time dependent results of 14-3-3γ titration to 10 nM fluorescein-labelled ERRγ peptide in presence of 100 µM compound 1-10 (or DMSO as negative control).
Fluorescence anisotropy was measured every 15 minutes for the first 2 hours after which it was measured every hour for 15 hours. The plate was measured one more time after 24 hours incubation.
(1 picture or pasted object on this page, not shown here)
Figure S3. Time-dependent FA-based apparent Kd analysis. Determined apparent K from fluorescence […]
anisotropy binding curves (see figure S1) and plotted over time (top row) for all compounds in this study to show a time dependent decrease in KD (increase in affinity) between 14-3-3γ and ERRγ as induced by the compounds.
Bottom graphs show the normalized version of the top graphs where the KD at t=0h was set to no effect (0%) and […]
Figure S16. Time- and pH dependent FA-based apparent K analysis. (a-c) Determined apparent K from […]
fluorescence anisotropy binding curves (see figure S15) and plotted over time for compounds 1, 5 and 10. Results show a time dependent decrease in KD (increase in affinity) between 14-3-3γ and ERRγ as induced by the compounds over time. […]
(§1) temperatures are based on three independent experiments from which the average and standard deviations were determined using excel. […]

[2] = target: T1, 14-3-3γ/ERRγ complex; experiment: Peptide washout experiment on immobilized 14-3-3γ/ERRγ complex; format: binding; conditions: 100 μM compound; for total recovered ERRγ peptide: 5 washing steps of 20 min, normalized to recovery without 14-3-3γ; for initial peptide recovery: first washing step (DMSO 63%)
Description: Next, a washout experiment was performed to understand ternary 14-3-3/ERRγ/molecular lock complex dissociation. Fluorescein-labeled ERRγ was incubated overnight with biotin-functionalized 14-3-3γ in the presence of either DMSO, disulfide 1, aldehyde 3, or molecular lock 5 and subsequently immobilized on streptavidin-functionalized magnetic beads (Figure S17a). The beads were then washed five times in a peptide and compound-free buffer. During each wash step, the beads were incubated in the buffer for 20 min to allow dissociation of the ERRγ peptide from the immobilized 14-3-3γ. The fluorescence was then measured for all samples before capture, after capture, and after each washing step (Figure S17b), and the amount of peptide recovery was calculated. […] The analysis of individual washing steps provided further insight into the ternary complex dissociation kinetics (Figure 3e).
Figure S17. Washout experiment. (a) Schematic representation of washout experiment. Biotinylated 14-3-3γ (5 µM), fluorescein-labelled ERRγ 9-mer peptide (200 nM) and dual-reactive molecular lock 5 were preincubated overnight to form a ternary ‘crosslinked’ complex. This complex was immobilized on streptavidin-functionalized magnetic beads. Complex-functionalized beads were subsequently washed […] with 50 µL buffer. For each wash step, the complex was incubated 20 minutes in the buffer before removal to allow dissociation of the ERRγ peptide from the ternary complex. From samples before and after capturing, and from all wash fractions, we have measured the fluorescence to determine the amount of ERR γ peptide in each fraction. (b) Fluorescence signal of fluorescein-labelled ERRγ peptide after washout experiment. Samples are present for FAM - ERRγ incubated with and without biotinylated 14 -3-3γ and in presence of either DMSO (negative control), disulfide compound 1, aldehyde compound 3 or dual-reactive compound 5. Fluorescence was measured from samples before and after capturing and from all wash fractions. (c) % recovery of FAM -ERRγ in each wash fraction of washout experiment. Percentage is obtained by dividing the fluorescence of each sample (see panel a) by the fluorescence signal obtained before capturing (input sample = 100% , see panel a). […]
steps in presence of DMSO, or 100 µM compound 1, 3 or 5. Values are calculated by dividing the fluorescence signal (from panel a) of samples with 14-3-3 with the fluorescence signal of samples without 14-3-3, to correct for non-specific binding of peptide to the magnetic beads. […]
as §1

T1 sequence (P61981 whole entry, other chains not shown): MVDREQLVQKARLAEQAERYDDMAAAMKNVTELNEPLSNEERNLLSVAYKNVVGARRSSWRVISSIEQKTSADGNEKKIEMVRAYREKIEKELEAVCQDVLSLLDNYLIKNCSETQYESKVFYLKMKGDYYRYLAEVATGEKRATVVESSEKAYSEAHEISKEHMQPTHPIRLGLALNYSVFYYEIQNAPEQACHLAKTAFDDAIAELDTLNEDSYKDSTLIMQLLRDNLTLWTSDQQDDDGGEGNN

Row | SMILES | binding kinetics ([1]; 100 μM compound, TD-FA) | time to saturation of ternary complex formation ([1]; 100 μM compound, TD-FA) [h] | total recovered ERRγ peptide [2] [%] | initial peptide recovery [2] [%] | incubation time to reach maximum effect ([1]; pH 6.5, 100 μM compound) [h]
1 | CN(C)CCSSCCN(C)C(=O)c1ccc(C=O)c(F)c1 [compound 5] | fastest reaction kinetics | 2 | 44 | 36 | –
2 | CN(C)CCSSCCN(C)C(=O)c1cccc(F)c1 [compound 1, reference compound] | significantly slower binding kinetics than molecular locks 4–10 | – | 58 | 42 | 4.2
